Results from patent US20200038412A1, “METHODS OF TREATING ALZHEIMER'S DISEASE USING AMINOSTEROL COMPOSITIONS” (Enterin, Inc., priority 2018, published 2020).
“Also recorded” adds a separate entry of the source.

What was measured:
Assay type in all cases: in vivo, human
[1] = system: patients with PD and constipation; experiment: Circadian rhythm of wrist skin temperature; details: for circadian rhythm of skin temperature / markers of healthy circadian function: oral, 12 evaluable patients
Method: Assessments were made at baseline and at the end of the fixed dose and washout periods. Circadian system status was evaluated by continuously monitoring wrist skin temperature (Thermochron iButton DS1921H; Maxim, Dallas) following published procedures (Sarabia et al. 2008).
Circadian rhythm of skin temperature was evaluable in 12 patients (i.e., those who had recordings that extended from baseline through washout). Circadian system functionality was evaluated by continuously monitoring wrist skin temperature using a temperature sensor (Thermochron iButton DS1921H; Maxim, Dallas, Tex.) (Sarabia et al. 2008). A nonparametric analysis was performed for each participant to characterize DST as previously described (Sarabia et al. 2008; Ortiz-Tudela et al. 2010).
Briefly, this analysis includes the following parameters: (i) the inter-daily stability (the constancy of 24-hour rhythmic pattern over days, IS); (ii) intra-daily variability (rhythm fragmentation, IV); (iii) average of 10-minute intervals for the 10 hours with the minimum temperature (L10); (iv) average of 10-minute intervals for the 5 hours with the maximum temperature (M5) and the relative amplitude (RA), which was determined by the difference between M5 and L10, divided by the sum of both. Finally, the Circadian Function Index (CFI) was calculated by integrating IS, IV, and RA. Consequently, CFI is a global measure that oscillates between 0 for the absence of circadian rhythmicity and 1 for a robust circadian rhythm (Ortiz-Tudela et al. 2010).

[2] = system: patients with PD and constipation; experiment: Phase 2 trial Stage 2: bowel function under daily oral dosing (escalation, fixed dose, wash-out)
Method: Following successful screening, all subjects underwent a 14-day run-in period where the degree of constipation was assessed through a validated daily log (Zinsmeister et al. 2013) establishing baseline CSBMs/week. Subjects with an average of <3 CSBMs/week proceeded to dosing.
In Stage 2, 34 patients were evaluated.
The primary efficacy outcome variable was whether or not a subject was a “success” or “failure”. This is an endpoint based on subject diary entries for the “fixed dose” period prior to the endpoint assessment defined as average complete stool frequency increase by 1 or more over baseline, or 3 or more complete spontaneous stools/week. The subject was deemed a “success” if s/he met one or more of the criteria listed above, otherwise the subject was deemed a “failure”. The primary analysis was based on all subjects with a baseline assessment and an assessment at the end of the “fixed-dose” period and was a comparison of the proportion of successes with 0.10 (the null hypothesis corresponding to no treatment effect).

[3] = system: patients with PD and constipation; experiment: Phase 2 trial Stage 1: adverse events
Source text: Tolerability limits included diarrhea or vomiting.

[4] = Stage 1, 10 dosed, unrelated to ENT-01

CC(C)[C@@H](CC[C@@H](C)[C@H]1CC[C@H]2[C@@H]3[C@H](O)C[C@H]4C[C@@H](NCCCNCCCCN)CC[C@]4(C)[C@H]3CC[C@]12C)OS(=O)(=O)O (single isomer, unassigned) [squalamine (ENT-01), squalamine]
relative amplitude (RA) ([1]; fixed dose vs baseline, p=0.001): increasing | circadian function index (CFI) ([1]; fixed dose vs baseline, p=0.016): increasing | rhythm stability (inter-daily stability, IS) ([1]; fixed dose vs baseline, p=0.026): increasing | rhythm fragmentation (intra-daily variability, IV) ([1]; fixed dose vs baseline, p=0.031): reducing | circadian rhythm of skin temperature / markers of healthy circadian function ([1]; fixed dose vs baseline): significant positive impact on the circadian rhythm of skin temperature; also recorded: improved all markers of healthy circadian function | circadian rhythm of skin temperature / markers of healthy circadian function ([1]; fixed dose vs baseline, listed as aminosterol): improved all markers of healthy circadian function | circadian parameters during wash-out period ([1]; wash-out vs baseline (IS, CFI), 12 patients): improvement persisted for several of these circadian parameters | improvement of ease of passage ([2]; 3.2 to 3.7): 16% | response rate (CSBM within 24 hours of dosing on at least 2 of 3 days) ([2]; Stage 2, daily oral dosing, 75 mg): 26% | CSBM, weekly average ([2]; Stage 2, fixed dose, mean (SD), n = 34, baseline 1.2 (0.90)): 3.8 (2.4) CSBM/week | Suppository use / rescue medication, weekly average ([2]; Stage 2, fixed dose, mean (SD), n = 34, baseline 1.8 (1.92)): 0.3 (0.67) /week | Consistency (Bristol stool scale 1-7) ([2]; Stage 2, fixed dose, mean (SD), n = 34, baseline 2.7 (1.20), listed as aminosterol): 4.1 | Ease of passage (Ease of evacuation scale 1-7) ([2]; Stage 2, fixed dose, mean (SD), n = 34, baseline 3.2 (0.73), listed as aminosterol): 3.7 | PAQ-SYM ([2]; Stage 2, wash-out, mean (SD), baseline 1.3 (0.45)): 1.1 (0.60) | PAQ-QOL ([2]; Stage 2, wash-out, mean (SD), baseline 1.4 (0.49)): 1.2 (0.63) | Rescue meds ([2]; Stage 2, wash-out, mean (SD), baseline 1.8 (1.92)): 1.0 (1.40) | Consistency ([2]; Stage 2, wash-out, mean (SD), baseline 2.7 (1.20)): 2.8 (1.39) | Ease ([2]; Stage 2, wash-out, mean (SD), baseline 3.2 (0.73)): 3.3 (0.81) | improvement of average CSBM/week ([2]; baseline 1.2 to fixed dose 3.8): 216% | decrease of use of rescue medication ([2]; baseline 1.8/week to fixed dose 0.3): 83% | improvement of SBM ([2]; baseline 2.6 to fixed dose 4.5): 73% | CSBM frequency in the randomized cohort ([2]; group later randomized to placebo (n = 9), fixed dose period (still on drug), baseline 1.6): 3.3 CSBM/week | CSBM frequency in the randomized cohort ([2]; group randomized to treatment (n = 6), fixed dose period, baseline 0.8): 3.2 CSBM/week | CSBM frequency in the randomized cohort ([2]; group randomized to treatment (n = 6), randomized period (4-6 days continued treatment), baseline 0.8): 2.4 CSBM/week | CSBM frequency in the randomized cohort ([2]; group randomized to treatment (n = 6), washout, baseline 0.8): 0.9 CSBM/week | improvement of consistency (Bristol stool scale) ([2]; mean 2.7 to 4.1): 52% | mean dose required for a bowel response (prokinetic dose) ([2]; patients with baseline ≥1 CSBM/week): 120 mg | patients responding ([2]; within effective dose range 75 mg to 250 mg): 85% | AEs confined to the GI tract ([3]; Stage 1): 88% | Diarrhea (common adverse events by dose) ([3]; Stage 1, 25 mg): 1 | Nausea (common adverse events by dose) ([3]; Stage 1, 25 mg): 0 | Vomiting (common adverse events by dose) ([3]; Stage 1, 25 mg): 0 | Diarrhea (common adverse events by dose) ([3]; Stage 1, 50 mg): 1 | Nausea (common adverse events by dose) ([3]; Stage 1, 50 mg): 0 | Vomiting (common adverse events by dose) ([3]; Stage 1, 50 mg): 0 | Diarrhea (common adverse events by dose) ([3]; Stage 1, 75 mg): 1 | Nausea (common adverse events by dose) ([3]; Stage 1, 75 mg): 0 | Vomiting (common adverse events by dose) ([3]; Stage 1, 75 mg): 0 | Diarrhea (common adverse events by dose) ([3]; Stage 1, 100 mg): 0 | Nausea (common adverse events by dose) ([3]; Stage 1, 100 mg): 1 | Vomiting (common adverse events by dose) ([3]; Stage 1, 100 mg): 1 | Diarrhea (common adverse events by dose) ([3]; Stage 1, 125 mg): 1 | Nausea (common adverse events by dose) ([3]; Stage 1, 125 mg): 2 | Vomiting (common adverse events by dose) ([3]; Stage 1, 125 mg): 1 | Diarrhea (common adverse events by dose) ([3]; Stage 1, 150 mg): 1 | Nausea (common adverse events by dose) ([3]; Stage 1, 150 mg): 0 | Vomiting (common adverse events by dose) ([3]; Stage 1, 150 mg): 0 | Diarrhea (common adverse events by dose) ([3]; Stage 1, 175 mg): 1 | Nausea (common adverse events by dose) ([3]; Stage 1, 175 mg): 1 | Vomiting (common adverse events by dose) ([3]; Stage 1, 175 mg): 0 | Diarrhea (common adverse events by dose) ([3]; Stage 1, 200 mg): 0 | Nausea (common adverse events by dose) ([3]; Stage 1, 200 mg): 2 | Vomiting (common adverse events by dose) ([3]; Stage 1, 200 mg): 0 | patients with diarrhea ([3]; Stage 1, 4/10 patients): 40% | patients with nausea ([3]; Stage 1, 4/10 patients): 40% | Abdominal pain, Mild ([3]; Stage 1, 10 dosed): 2 (20) n, % | Abdominal pain, Moderate ([3]; Stage 1, 10 dosed): 3 (30) n, % | Blood in urine, Moderate ([3]; Stage 1, 10 dosed): 0 n, % | Diarrhea, Mild ([3]; Stage 1, 10 dosed): 1 (10) n, % | Diarrhea, Moderate ([3]; Stage 1, 10 dosed): 3 (30) n, % | Diarrhea, Severe ([3]; Stage 1, 10 dosed): 0 n, % | Difficulty falling asleep, Mild ([3]; Stage 1, 10 dosed): 0 n, % | Difficulty falling asleep, Moderate ([3]; Stage 1, 10 dosed): 0 n, % | Dizziness, Mild ([3]; Stage 1, 10 dosed): 0 n, % | Dizziness, Moderate ([3]; Stage 1, 10 dosed): 0 n, % | Eye infection, Mild ([3]; Stage 1, 10 dosed): 0 n, % | Eye infection, Moderate ([3]; Stage 1, 10 dosed): 0 n, % | Flatulence, Mild ([3]; Stage 1, 10 dosed): 2 (20) n, % | Flatulence, Moderate ([3]; Stage 1, 10 dosed): 0 n, % | Headache, Mild ([3]; Stage 1, 10 dosed): 1 (10) n, % | Headache, Moderate ([3]; Stage 1, 10 dosed): 0 n, % | Increased urinary frequency, Mild ([3]; Stage 1, 10 dosed): 0 n, % | Increased urinary frequency, Moderate ([3]; Stage 1, 10 dosed): 0 n, % | Loss of appetite, Moderate ([3]; Stage 1, 10 dosed): 0 n, % | Lower GI bleed, Severe ([3]; Stage 1, 10 dosed): 0 n, % | Nausea, Mild ([3]; Stage 1, 10 dosed): 4 (40) n, % | Nausea, Moderate ([3]; Stage 1, 10 dosed): 0 n, % | Skin lesions-rash, Mild ([3]; Stage 1, 10 dosed): 0 n, % | Skin lesions-rash, Moderate ([3]; Stage 1, 10 dosed): 0 n, % | Urinary retention, Mild ([3]; Stage 1, 10 dosed): 0 n, % | Urinary retention, Moderate ([3]; Stage 1, 10 dosed): 0 n, % | Urinary tract infection, Mild ([3]; Stage 1, 10 dosed): 0 n, % | Urinary tract infection, Moderate ([3]; Stage 1, 10 dosed): 0 n, % | Vomiting, Mild ([3]; Stage 1, 10 dosed): 1 (10) n, % | Vomiting, Moderate ([3]; Stage 1, 10 dosed): 0 n, % | Worsening acid reflux, Mild ([3]; Stage 1, 10 dosed): 0 n, % | Worsening acid reflux, Moderate ([3]; Stage 1, 10 dosed): 0 n, % | Worsening hemorrhoid, Mild ([3]; Stage 1, 10 dosed): 0 n, % | Worsening hemorrhoid, Moderate ([3]; Stage 1, 10 dosed): 0 n, % | Blood in urine, Mild [3, 4]: 1 (10) n, % | Loss of appetite, Mild [3, 4]: 1 (10) n, %
